In patent publication US8778871B2 (Takeda Pharmaceutical Company Limited, priority 2004, dated 2014):
Non-standard residues stand in square brackets, D forms with d. Residues, ends and D or L forms follow the SMILES beside them. No end group written: not given here. *: point of attachment. Phe(4-F) = N[C@@H](Cc1ccc(F)cc1)C(=O)O; Arg(Me) = CNC(=N)NCCC[C@H](N)C(=O)O; Hydrocinnamoyl = O=C(CCc1ccccc1)*; Bz = O=C(c1ccccc1)*; GABA = NCCCC(=O)O; azaGly = NNC(=O)O; βAla = NCCC(=O)O

How the values were obtained:
[1] = target: T1, hOT7T175 (Homo sapiens, UniProt Q969F8, L364H); format: cell-based; details: hOT7T175/CHO, FLIPR, evaluation for 40 seconds after initiation of the reaction
T1 construct: expressed in transfected cells
Protocol: The intracellular Ca ion level-increasing activity was measured using FLIPR as in TEST EXAMPLE 2.

[2] = target: T2, hOT7T175 (Homo sapiens, UniProt Q969F8); experiment: Intracellular Ca ion level-increasing activity using FLIPR (180 seconds; specific activity to Metastin (1-54)); format: cell-based; details: hOT7T175/CHO, change in intracellular calcium ion level for 180 seconds, Tables 21-23
T2 construct: expressed in transfected cells

[3] = Blood testosterone level decreasing effect in mature male rat (2 mM peptide solution, ALZET osmotic pump); format: in vivo; details: 2 mM peptide solution in distilled water, ALZET osmotic pump s.c., 6 days, Tables 28 and 29
Protocol: (§1) This peptide solution was filled in 5 ALZET osmotic pumps (Model 2001, 0.2 ml in volume, release rate: 0.001 ml/hr, DURECT Corporation). The ALZET pumps filled with the peptide solution were implanted subcutaneously in 5 CD(SD)IGS male rats of 9 weeks old after birth (Charles River Japan, Inc.) on the back under ether anesthesia by one pump for one animal. For negative control, distilled water (Otsuka Pharmaceutical Co., Ltd.) was filled in 5 ALZET osmotic pumps, which were similarly implanted in 5 male CD(SD)IGS rats (Charles River Japan, Inc.), respectively. These pump-implanted rats were fed for 6 days under normal feeding conditions. After weighing, the animal was decapitated to collect blood. After 0.03 ml/ml blood of aprotinin solution (Trasylol, Bayer) containing 0.1 mg/ml EDTA.2Na was added to blood, the mixture was centrifuged at 1,800 G for 25 minutes to isolate/recover plasma. From the plasma obtained, 0.05 ml was applied to radioimmunoassay (DPC.Total Testosterone Kit, Diagnostic Products Corporation) to measure the plasma testosterone level of each rat. The value below the limit of measurement (0.04 ng/ml of plasma level) in radioimmunoassay was treated as 0. A mean value of the testosterone levels from 5 rats receiving the peptide was calculated and a relative value (percent) of the mean value to a mean value from 5 rats receiving distilled water.

[4] = target: T1, hOT7T175; experiment: Intracellular Ca ion level-increasing activity using FLIPR (180 seconds; specific activity to Metastin (1-54)); format: cell-based; details: hOT7T175/CHO, relative to Metastin (1-54) = 1
[5] = Blood testosterone level decreasing effect in mature male rat (0.1 mM peptide solution); format: in vivo
Protocol: as §1
In a manner similar to TEST EXAMPLE 14, evaluation was made using 0.1 mM peptide solution and a part of the results obtained are shown in TABLE 30.

[6] = Action of reducing testosterone level in blood in mature male rat (1 mM peptide in 50% DMSO, ALZET osmotic pump); format: in vivo; details: 1 mM peptide in 50% DMSO aqueous solution, ALZET osmotic pump s.c., six days
Protocol: The peptide was encapsulated in five ALZET osmotic pump (Model 2001, 0.2 ml of volume, releasing rate 0.001 ml/hr, DURECT Corporation). The ALZET pumps encapsulated with the peptide solution were implanted to dorsal subcutaneous of five male CD (SD) IGS rat at nine weeks age (Charles River Japan, Inc.) anesthesized with ether for one pump to one rat. Separately, for negative controls, the ALZET osmotic pumps encapsulated with distilled water were implanted to five male CD (SD) IGS rat (Charles River Japan, Inc.) The rats were bred for six days under the normal conditions. After weighing, blood was collected by decapitation. To 1 ml of blood, 0.03 ml of aprotinin (Trasylol, Byer) solution containing 0.1 g/ml EDTA 2Na was added. The plasma was isolated by centrifugation at 1,800×g for 25 minutes and collected. The thus obtained plasma, 0.05 ml was effected by radioimmunoassay. (DPC Total Testosterone Kit, Diagnostic Products Corporation) to measure testosterone level in blood of each rat. The value beneath measuring limit of radioimmunoassay (0.04 ng/ml as concentration of plasma) was treated as zero. The mean values for testosterone level of five rats, to which the peptide was given, was calculated and the relative value (percentage) for the mean values of testosterone level of five rats, to which distilled watrer was given, was estimated.

T2 sequence (Q969F8 whole entry L364H): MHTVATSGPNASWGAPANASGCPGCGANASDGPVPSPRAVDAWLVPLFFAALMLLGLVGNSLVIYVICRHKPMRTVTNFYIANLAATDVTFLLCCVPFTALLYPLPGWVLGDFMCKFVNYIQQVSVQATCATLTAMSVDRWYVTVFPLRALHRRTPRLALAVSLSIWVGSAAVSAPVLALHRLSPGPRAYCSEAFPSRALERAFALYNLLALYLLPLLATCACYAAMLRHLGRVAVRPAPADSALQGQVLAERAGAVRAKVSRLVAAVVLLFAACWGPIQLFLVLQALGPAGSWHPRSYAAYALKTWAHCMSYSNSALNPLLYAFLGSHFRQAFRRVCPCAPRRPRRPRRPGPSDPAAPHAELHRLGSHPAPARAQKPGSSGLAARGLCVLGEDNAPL
T1 sequence (Q969F8 whole entry L364H): as above

Row | Compound | Specific Act. (EC50/MS10 EC50) [1] | intracellular Ca ion level-increasing activity [specific activity to Metastin (1-54)] [2] | Teststerone level in Blood [3] [%] | Specific Act. (intracellular Ca ion level-increasing activity, specific activity to Metastin (1-54)) [4] | Teststerone level in Blood [5] [%] | Testosterone level in Blood [6] [%]
1 | 3-(3-Indolyl)propionyl-Phe-AzaGly-Leu-Arg(Me)-Trp-NH2 [Compound No. 354] | 0.8 | 10 | 43 |  |  | 
2 | GuAmb-Phe-AzaGly-Leu-Arg(Me)-Trp-NH2 [Compound No. 334] |  |  | 40 |  |  | 
3 | CC(C)C[C@H](NC(=O)NNC(=O)[C@H](Cc1ccccc1)NC(=O)[C@H](CO)NC(=O)[C@H](CC(N)=O)NC(=O)[C@H](Cc1c[nH]c2ccccc12)NC(=O)[C@H](CC(N)=O)NC(=O)[C@@H](N)Cc1ccc(O)cc1)C(=O)N[C@@H](CCCNC(=N)N)C(=O)N[C@@H](Cc1ccccc1)C(N)=O [Compound No. 176, Tyr-Asn-Trp-Asn-Ser-Phe-AzaGly-Leu-Arg-Phe-NH2] | 1.3 |  | 12 | 5 |  | 
4 | D-Tyr-D-Pya(4)-Asn-Val-Phe-AzaGly-Leu-Arg(Me)-Trp-NH2 [Compound No. 515] | 1.0 | 10 | 2 |  |  | 
5 | 3-Phenylpropionyl-Asn-Ser-Phe(4F)-AzaGly-Leu-Arg(Me)-Trp-NH2 [Compound No. 508] | 1.0 | 10 | 9 |  |  | 
6 | D-Tyr-D-Pya(4)-Ala-Ser-Phe-AzaGly-Leu-Arg(Me)-Trp-NH2 [Compound No. 492] | 1.1 | 5 | 65 |  |  | 
7 | 3-Phenylpropionyl-Asn-Thr-Phe-AzaGly-Leu-Arg(Me)-Trp-NH2 [Compound No. 505] | 0.7 | 20 | 40 |  |  | 
8 | 3-(3-Pyridyl)propionyl-Asn-Ser-Phe-AzaGly-Leu-Arg(Me)-Trp-NH2 [Compound No. 386] | 2.9 | 7 | 23 |  |  | 
9 | 4-Pyridinecarbonyl-Phe-AzaGly-Leu-Arg(Me)-Trp-NH2 [Compound No. 436] | 1.4 | 5 | 35 |  |  | 
10 | Ac-[dY][dW]NVF[azaGly]L[Arg(Me)]W-NH2 [Compound No. 564] | 0.5 |  |  |  | 66 | 2
11 | CNC(=N)NCCC[C@H](NC(=O)[C@H](CC(C)C)NC(=O)CNC(=O)[C@H](Cc1ccccc1)NC(=O)[C@H](CO)NC(=O)[C@H](CC(N)=O)NC(=O)[C@H](Cc1c[nH]c2ccccc12)NC(=O)[C@H](CC(N)=O)NC(=O)[C@H](N)Cc1ccc(O)cc1)C(=O)N[C@@H](Cc1ccccc1)C(N)=O [Compound No. 141] | 1.6 |  | 31 | 10 |  | 
12 | D-Tyr-D-Pya(4)-Asn-Ser-Cha-Gly-Leu-Arg(Me)-Trp-NH2 [Compound No. 496] | 0.7 | 5 | 3 |  |  | 
13 | 3-Phenylpropionyl-Asn-Ser-Phe-AzaGly-Leu-Arg(Me)-Trp-NH2 [Compound No. 499] | 1.4 | 10 | 2 |  | 32 | 
14 | Bz-NSF[azaGly]L[Arg(Me)]W-NH2 [Compound No. 509] | 2.0 | 20 | 2 |  |  | 
15 | [dY][dW]NTF[azaGly]L[Arg(Me)]W-NH2 [Compound No. 512] | 0.8 | 30 | 2 |  | 38 | 
16 | H-YNWNSFGLRW-NH2 [Compound No. 134] | 0.5 |  | 50 | 30 |  | 
17 | 3-Phenylpropionyl-Asn-Hyp-Phe-AzaGly-Leu-Arg(Me)-Trp-NH2 [Compound No. 517] | 1.0 |  | 79 |  |  | 
18 | [dR][βAla][dY][dW]NTF[azaGly]L[Arg(Me)]W-NH2 [Compound No. 554] | 1.3 |  |  |  | 52 | 
19 | D-Dap-Acp-D-Tyr-D-Trp-Asn-Thr-Phe-AzaGly-Leu-Arg(Me)-Trp-NH2 [Compound No. 552] | 2.3 |  |  |  | 21 | 
20 | [dR][GABA][dY][dW]NTF[azaGly]L[Arg(Me)]W-NH2 [Compound No. 555] | 1.5 |  |  |  | 73 | 2
21 | Bz-NS[Phe(4-F)][azaGly]L[Arg(Me)]W-NH2 [Compound No. 545] | 1.1 |  |  |  | 37 | 2
22 | CNC(=N)NCCC[C@H](NC(=O)[C@H](CC(C)C)NC(=O)NNC(=O)[C@H](Cc1ccccc1)NC(=O)[C@H](CO)NC(=O)[C@H](CC(N)=O)NC(=O)CCc1ccccc1)C(=O)N[C@@H](Cc1ccccc1)C(N)=O [Compound No. 269, 3-Phenylpropionyl-Asn-Ser-Phe-AzaGly-Leu-Arg(Me)-Phe-NH2] (Hydrocinnamoyl-NSF[azaGly]L[Arg(Me)]F-NH2) | 3.4 | 3 | 7 |  |  | 
23 | Ac-[dY][dW]NTF[azaGly]L[Arg(Me)]F-NH2 [Compound No. 571] | 1.2 |  |  |  | 17 | 
24 | D-Tyr-D-Pya(4)-Asn-Ser-Phe-AzaGly-Leu-Arg(Me)-Trp-NH2 [Compound No. 385] | 0.7 | 10 | 2 |  | 33 | 
